Assay results as given in patent US11497212B2, “Substituted thiophenyl uracils, salts thereof and the use thereof as herbicidal agents” (Syngenta Crop Protection AG, priority 2017, dated 2022).

Assays:
Type in all cases: in vivo
Triticum aestivum = assay: Crop compatibility post-emergence (greenhouse pot trial)
In short: (§1)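 Crops grown in sandy loam in greenhouse, sprayed at one-leaf stage (2–3 weeks after sowing) with WP or EC formulations in water plus 0.5% additive, 600 L/ha. Damage scored visually after about 3 weeks versus untreated controls, 0% = like control, 100% = dead.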

Zea mays [1] = assay: as above
In short: as §1

Oryza sativa = assay: as above
In short: as §1

Zea mays [2] = assay: Crop compatibility pre-emergence (greenhouse pot trial); settings: effect vs untreated controls
In short: (§2)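 Greenhouse pot test in which WP or EC formulations are applied to the covering soil before emergence (600 L/ha water, 0.5% additive). Crop effects are scored by eye as % after about 3 weeks, relative to untreated plants.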

Hordeum murinum [3] = assay: Herbicidal action pre-emergence (greenhouse pot trial); settings: application rate 320 g/ha
In short: (§3)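 In this test the compounds, as suspensions or emulsions in water plus 0.5% additive, are sprayed onto the soil layer covering seeds at 320 g/ha or lower. Scoring happens visually after about three weeks under good greenhouse growth conditions.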

Viola tricolor [4] = assay: as above; settings: application rate 320 g/ha, scored after about 3 weeks
In short: as §3

Amaranthus retroflexus [5] = assay: as above; settings: application rate 320 g/ha, scored after about 3 weeks
In short: as §3

Avena fatua = assay: as above; settings: application rate 320 g/ha
In short: as §3

Pharbitis purpurea [6] = assay: as above; settings: application rate 320 g/ha
In short: as §3

Alopecurus myosuroides [7] = assay: as above; settings: application rate 320 g/ha, scored after about 3 weeks
In short: as §3

Lolium rigidum [8] = assay: as above; settings: application rate 320 g/ha
In short: as §3

Echinochloa crus-galli [9] = assay: as above; settings: application rate 320 g/ha, scored after about 3 weeks
In short: as §3

Veronica persica [10] = assay: as above; settings: application rate 320 g/ha
In short: as §3

Cyperus esculentus = assay: as above; settings: application rate 320 g/ha
In short: as §3

Stellaria media [11] = assay: as above; settings: application rate 320 g/ha, scored after about 3 weeks
In short: as §3

Matricaria inodora [12] = assay: as above; settings: application rate 320 g/ha, scored after about 3 weeks
In short: as §3

Abutilon theophrasti [13] = assay: as above; settings: application rate 320 g/ha, scored after about 3 weeks
In short: as §3

Setaria viridis [14] = assay: as above; settings: application rate 320 g/ha, scored after about 3 weeks
In short: as §3

Polygonum convolvulus = assay: Herbicidal action post-emergence (greenhouse pot trial); settings: application rate 80 g/ha, scored visually after about 3 weeks vs untreated controls
In short: (§4)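 Foliar application post-emergence; water volume 600 L/ha, additive 0.5%, dose ≤80 g/ha. Scoring: visual, ~3 wk, relative to untreated (0–100%).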

Viola tricolor [15] = assay: as above; settings: application rate 80 g/ha
In short: as §4

Amaranthus retroflexus [16] = assay: as above; settings: application rate 80 g/ha, scored visually after about 3 weeks vs untreated controls
In short: as §4

Pharbitis purpurea [17] = assay: as above; settings: application rate 80 g/ha
In short: as §4

Alopecurus myosuroides [18] = assay: as above; settings: application rate 80 g/ha, scored visually after about 3 weeks vs untreated controls
In short: as §4

Lolium rigidum [19] = assay: as above; settings: application rate 80 g/ha, scored visually after about 3 weeks vs untreated controls
In short: as §4

Echinochloa crus-galli [20] = assay: as above; settings: application rate 80 g/ha, scored visually after about 3 weeks vs untreated controls
In short: as §4

Veronica persica [21] = assay: as above; settings: application rate 80 g/ha
In short: as §4

Stellaria media [22] = assay: as above; settings: application rate 80 g/ha, scored visually after about 3 weeks vs untreated controls
In short: as §4

Matricaria inodora [23] = assay: as above; settings: application rate 80 g/ha, scored visually after about 3 weeks vs untreated controls
In short: as §4

Abutilon theophrasti [24] = assay: as above; settings: application rate 80 g/ha, scored visually after about 3 weeks vs untreated controls
In short: as §4

Setaria viridis [25] = assay: as above; settings: application rate 80 g/ha, scored visually after about 3 weeks vs untreated controls
In short: as §4

Glycine max [26] = assay: Crop compatibility pre-emergence (greenhouse pot trial); settings: application rate 80 g/ha, effect vs untreated controls
In short: as §2

Digitaria sanguinalis [27] = assay: Herbicidal action pre-emergence (greenhouse pot trial); settings: application rate 80 g/ha
In short: as §3

Hordeum murinum [28] = assay: Herbicidal action post-emergence (greenhouse pot trial); settings: application rate 80 g/ha, scored visually after about 3 weeks vs untreated controls
In short: as §4

Digitaria sanguinalis [29] = assay: as above; settings: application rate 80 g/ha
In short: as §4

Glycine max [30] = assay: Crop compatibility post-emergence (greenhouse pot trial)
In short: as §1

SMILES | Hordeum murinum (Efficacy in %) (Hordeum murinum [3]) | Viola tricolor (Efficacy in %) (Viola tricolor [4]) | Amaranthus retroflexus (Efficacy in %) (Amaranthus retroflexus [5]) | Avena fatua (Efficacy in %) (Avena fatua) | Pharbitis purpurea (Efficacy in %) (Pharbitis purpurea [6]) | Alopecurus myosuroides (Efficacy in %) (Alopecurus myosuroides [7]) | Lolium rigidum (Efficacy in %) (Lolium rigidum [8]) | Echinochloa crus-galli (Efficacy in %) (Echinochloa crus-galli [9]) | Veronica persica (Efficacy in %) (Veronica persica [10]) | Stellaria media (Efficacy in %) (Stellaria media [11]) | Matricaria inodora (Efficacy in %) (Matricaria inodora [12]) | Abutilon theophrasti (Efficacy in %) (Abutilon theophrasti [13]) | Setaria viridis (Efficacy in %) (Setaria viridis [14]) | Polygonum convolvulus (Efficacy in %) (Polygonum convolvulus) | Viola tricolor (Efficacy in %) (Viola tricolor [15]) | Amaranthus retroflexus (Efficacy in %) (Amaranthus retroflexus [16]) | Pharbitis purpurea (Efficacy in %) (Pharbitis purpurea [17]) | Veronica persica (Efficacy in %) (Veronica persica [21]) | Matricaria inodora (Efficacy in %) (Matricaria inodora [23]) | Abutilon theophrasti (Efficacy in %) (Abutilon theophrasti [24]) | also measured
COCCOC(=O)C(C)Sc1cc(-n2c(=O)cc(C(F)(F)F)n(C)c2=O)c(F)cc1Cl (stereo not shown) [I.1-1] | 90% | 100% | 100% | 90% | 100% | 80% | 80% | 100% | 100% | 100% | 100% | 100% | 100% | 100% | 100% | 100% | 100% | 100% | 100% | 100% | Triticum aestivum (Efficacy in %) (Triticum aestivum; application rate 5 g/ha): 20%; Zea mays (Efficacy in %) (Zea mays [1]; application rate 20 g/ha): 20%; Oryza sativa (Efficacy in %) (Oryza sativa; application rate 5 g/ha): 20%; Zea mays (Efficacy in %) (Zea mays [2]; application rate 20 g/ha): 20%; Cyperus esculentus (Efficacy in %) (Cyperus esculentus): 100%; Alopecurus myosuroides (Efficacy in %) (Alopecurus myosuroides [18]): 80%; Lolium rigidum (Efficacy in %) (Lolium rigidum [19]): 90%; Echinochloa crus-galli (Efficacy in %) (Echinochloa crus-galli [20]): 100%; Stellaria media (Efficacy in %) (Stellaria media [22]): 100%; Setaria viridis (Efficacy in %) (Setaria viridis [25]): 100%
CCOCCCOC(=O)C(C)Sc1cc(-n2c(=O)cc(C(F)(F)F)n(C)c2=O)c(F)cc1Cl (stereo not shown) [I.1-27] | 80% | 100% | 100% | – | 100% | 80% | 90% | 100% | 100% | 100% | 100% | 100% | 100% | 100% | 100% | 100% | 100% | 100% | 100% | 100% | Triticum aestivum (Efficacy in %) (Triticum aestivum; application rate 5 g/ha): 10%; Oryza sativa (Efficacy in %) (Oryza sativa; application rate 5 g/ha): 10%; Zea mays (Efficacy in %) (Zea mays [2]; application rate 80 g/ha): 0%; Glycine max (Efficacy in %) (Glycine max [26]): 20%; Digitaria sanguinalis (Efficacy in %) (Digitaria sanguinalis [27]): 100%; Hordeum murinum (Efficacy in %) (Hordeum murinum [28]): 80%; Digitaria sanguinalis (Efficacy in %) (Digitaria sanguinalis [29]): 100%; Alopecurus myosuroides (Efficacy in %) (Alopecurus myosuroides [18]): 90%; Lolium rigidum (Efficacy in %) (Lolium rigidum [19]): 80%; Echinochloa crus-galli (Efficacy in %) (Echinochloa crus-galli [20]): 100%; Stellaria media (Efficacy in %) (Stellaria media [22]): 100%; Setaria viridis (Efficacy in %) (Setaria viridis [25]): 100%
CC(Sc1cc(-n2c(=O)cc(C(F)(F)F)n(C)c2=O)c(F)cc1Cl)C(=O)NCC1CCCS1(=O)=O (stereo not shown) [I.1-275] | 90% | 100% | 100% | 100% | 100% | 100% | 90% | 100% | 100% | 100% | 100% | 100% | 100% | 100% | 100% | 100% | 100% | 100% | 100% | 100% | Triticum aestivum (Efficacy in %) (Triticum aestivum; application rate 20 g/ha): 20%; Oryza sativa (Efficacy in %) (Oryza sativa; application rate 20 g/ha): 20%; Cyperus esculentus (Efficacy in %) (Cyperus esculentus): 80%; Alopecurus myosuroides (Efficacy in %) (Alopecurus myosuroides [18]): 90%; Lolium rigidum (Efficacy in %) (Lolium rigidum [19]): 80%; Echinochloa crus-galli (Efficacy in %) (Echinochloa crus-galli [20]): 90%; Stellaria media (Efficacy in %) (Stellaria media [22]): 100%; Setaria viridis (Efficacy in %) (Setaria viridis [25]): 100%
CC(Sc1cc(-n2c(=O)cc(C(F)(F)F)n(C)c2=O)c(F)cc1Cl)C(=O)NCC1CS(=O)(=O)CCO1 (stereo not shown) [I.1-333] | 100% | 100% | 100% | 100% | 100% | 100% | 100% | 100% | 100% | 100% | 100% | 100% | 90% | 100% | 100% | 100% | 80% | 80% | 100% | 100% | Triticum aestivum (Efficacy in %) (Triticum aestivum; application rate 20 g/ha): 10%; Zea mays (Efficacy in %) (Zea mays [1]; application rate 80 g/ha): 0%; Glycine max (Efficacy in %) (Glycine max [30]; application rate 20 g/ha): 20%; Oryza sativa (Efficacy in %) (Oryza sativa; application rate 80 g/ha): 0%; Zea mays (Efficacy in %) (Zea mays [2]; application rate 80 g/ha): 20%; Glycine max (Efficacy in %) (Glycine max [26]): 0%; Cyperus esculentus (Efficacy in %) (Cyperus esculentus): 80%
COCCOC(=O)CSc1cc(-n2c(=O)cc(C(F)(F)F)n(C)c2=O)c(F)cc1Cl [I.8-1] | 90% | 100% | 100% | 80% | 100% | – | 90% | 100% | 100% | 100% | 100% | 100% | 100% | 100% | 100% | 100% | 100% | 100% | 100% | 100% | Zea mays (Efficacy in %) (Zea mays [1]; application rate 5 g/ha): 20%; Glycine max (Efficacy in %) (Glycine max [30]; application rate 5 g/ha): 20%; Oryza sativa (Efficacy in %) (Oryza sativa; application rate 5 g/ha): 10%; Cyperus esculentus (Efficacy in %) (Cyperus esculentus): 90%; Echinochloa crus-galli (Efficacy in %) (Echinochloa crus-galli [20]): 100%; Stellaria media (Efficacy in %) (Stellaria media [22]): 100%; Setaria viridis (Efficacy in %) (Setaria viridis [25]): 100%
